Results from ChEMBL document CHEMBL3886179, “Substituted 6, 7-dialkoxy-3-isoquinoline derivatives as inhibitors of phosphodiesterase 10 (PDE 10A)” (2015).
Where “and” joins values, the source holds several entries; their conditions need not be identical. Identical values can stand only once.

These molecules were tested against cAMP and cAMP-inhibited cGMP 3',5'-cyclic phosphodiesterase 10A (Homo sapiens, UniProt Q9Y233) (assay: Diaxonhit Phosphodiesterase Assay: The phosphodiesterase assay was developed using the LANCE cAMP kit (PerkinElmer). The assay buffer contained HBSS with 5 mM HEPES, 0.1% BSA, and 1.5 mM MgCl2, pH 7.4. PDE10A (BPS Bioscience) was used at 200 pg/well (with a specific activity of 3200 pmole/min/ug with assay conditions: 10 mM Tris-HCl, pH 7.4, 10 mM MgCl2, 1 mM MnCl2, 200 uM cAMP, 2.5 kU 5' nucleotidase, 37° C., 20 min) and PDE4D3 (BPS Bioscience) was used at 100 pg/well (with a specific activity of 32713 pmole/min/ug with assay conditions: 10 mM Tris-HCl, pH 7.4, 10 mM MgCl2, 1 mM MnCl2, 200 uM cAMP, 2.5 kU 5' nucleotidase, 37° C., 20 min). The Biotin-cAMP tracer, supplied in 10 mmol/L Tris-HCl buffered (pH 8.0) salt solution with 1 mmol/L ethylenediaminetetraacetic acid (EDTA), 0.1% bovine serum albumin (BSA), and 0.05% sodium azide, is used at a dilution of 1/375. The assay detection mixture contained the LANCE Eu-W8044 labeled streptavidin 1/2250 (supplied in 50 mmol/L Tris-HCl buffer).).
Chain of cAMP and cAMP-inhibited cGMP 3',5'-cyclic phosphodiesterase 10A (Q9Y233 whole entry): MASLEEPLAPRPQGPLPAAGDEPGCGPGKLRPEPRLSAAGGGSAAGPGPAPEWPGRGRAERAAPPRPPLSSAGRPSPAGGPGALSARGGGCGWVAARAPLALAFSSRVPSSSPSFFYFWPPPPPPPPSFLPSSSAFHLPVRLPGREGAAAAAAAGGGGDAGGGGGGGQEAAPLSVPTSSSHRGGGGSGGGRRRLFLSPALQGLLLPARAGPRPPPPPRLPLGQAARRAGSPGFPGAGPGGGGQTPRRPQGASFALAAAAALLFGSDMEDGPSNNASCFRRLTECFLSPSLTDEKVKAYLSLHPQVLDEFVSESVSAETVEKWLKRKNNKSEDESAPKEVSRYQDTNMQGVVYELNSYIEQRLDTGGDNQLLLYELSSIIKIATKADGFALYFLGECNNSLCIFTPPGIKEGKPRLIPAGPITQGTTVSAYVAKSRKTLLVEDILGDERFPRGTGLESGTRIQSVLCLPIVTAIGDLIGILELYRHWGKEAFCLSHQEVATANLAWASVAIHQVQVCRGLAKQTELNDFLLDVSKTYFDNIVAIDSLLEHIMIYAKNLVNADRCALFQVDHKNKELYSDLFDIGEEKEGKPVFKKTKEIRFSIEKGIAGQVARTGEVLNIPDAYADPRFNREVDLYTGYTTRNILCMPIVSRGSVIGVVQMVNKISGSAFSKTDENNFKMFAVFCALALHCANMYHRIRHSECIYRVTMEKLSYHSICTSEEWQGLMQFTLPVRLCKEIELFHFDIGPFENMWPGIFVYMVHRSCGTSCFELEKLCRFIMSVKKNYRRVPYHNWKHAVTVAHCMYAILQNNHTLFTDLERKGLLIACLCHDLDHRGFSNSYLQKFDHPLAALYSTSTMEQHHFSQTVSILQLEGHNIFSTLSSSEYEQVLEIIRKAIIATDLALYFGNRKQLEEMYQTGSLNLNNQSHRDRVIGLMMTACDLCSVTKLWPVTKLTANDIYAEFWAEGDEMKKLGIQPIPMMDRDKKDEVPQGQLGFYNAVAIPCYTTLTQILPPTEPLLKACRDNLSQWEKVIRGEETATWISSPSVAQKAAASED

Structure (SMILES) | IC50
COc1cc2c(Cc3cnc4ccccc4c3)cnc(C3CC3)c2cc1OC | 42 nM
COCc1ncc(Cc2ccc3cccc(NS(N)(=O)=O)c3n2)c2cc(OC)c(OC)cc12 | 0.18 nM
CCCc1ncc(Cc2ccc3cccc(OCC(N)=O)c3n2)c2cc(OC)c(OC)cc12 | 1.4 nM and 5.3 nM
COc1cc2c[n+]([O-])cc(Cc3ccc4oc5ccccc5c4c3)c2cc1OC | 31 nM
CCOc1cc2c(Cc3ccc4oc5ccccc5c4c3)cncc2cc1OC | 287 nM
COc1cc2c(Cc3ccc4ccccc4c3)cnc(C)c2cc1OC | 194 nM
CCc1ncc(Cc2ccc3cccc(C#N)c3n2)c2cc(OC)c(OC)cc12 | 46 nM
COc1cc2cncc(Cc3ccc4cccc(O)c4n3)c2cc1OC | 23 nM
CCc1ncc(Cc2ccc3oc4ccccc4c3c2)c2cc(OC)c(OC)cc12 | 339 nM
COc1cc2cncc(Cc3ccc4[nH]c(=O)oc4c3)c2cc1OC | 34 nM
CCc1ncc(Cc2cnc3ccccc3c2)c2cc(OC)c(OC)cc12 | 19 nM
COc1cc2c(Cc3ccc4oc5ccccc5c4c3)cnc(C)c2cc1OC | 184 nM
CCOc1cc2c(Cc3cnc4ccccc4c3)cncc2cc1OC | 92 nM
COc1cc2cncc(Cc3cnc4ccccc4c3)c2cc1OC | 13 nM
CCCc1ncc(Cc2ccc3c(C(F)(F)F)ccc(O)c3n2)c2cc(OC)c(OC)cc12 | 491 nM
CCOC(=O)COc1cccc2ccc(Cc3cncc4cc(OC)c(OC)cc34)nc12 | 51 nM
CCCc1ncc(Cc2cnc3ccccc3c2)c2cc(OC)c(OC)cc12 | 11 nM
COc1cc2cncc(Cc3ccc4c(c3)CCC(C)(C)O4)c2cc1OC | 81 nM
c1ccc2c(c1)oc1ccc(Cc3cncc4cc5c(cc34)OCCO5)cc12 | 7560 nM
CCCc1ncc(Cc2ccc3cccc(OCC(=O)NC)c3n2)c2cc(OC)c(OC)cc12 | 51 nM
COc1cc2cncc(Cc3ccc4c(c3)Cc3ccccc3-4)c2cc1OC | 110 nM
CCCc1ncc(Cc2cnc3cc(C)ccc3c2)c2cc(OC)c(OC)cc12 | 5.2 nM

Structure (SMILES) | IC50
COc1cc2c(Cc3ccc4cccc(O)c4n3)cnc(C)c2cc1OC | 42 nM
COc1cc2cncc(Cc3cnc4cc(C)ccc4c3)c2cc1OC | 1.2 nM
CCc1ncc(Cc2cnc3ccc(N)cc3c2)c2cc(OC)c(OC)cc12 | 13 nM
CCCc1ncc(Cc2coc3ccc(C)cc3c2=O)c2cc(OC)c(OC)cc12 | 31 nM
COc1cc2c(Cc3ccc4cccc(O)c4n3)cnc(C3CC3)c2cc1OC | 151 nM
COc1cc2cncc(Cc3coc4ccc(F)cc4c3=O)c2cc1OC | 38 nM
COc1ccc2cc(Cc3cncc4cc(OC)c(OC)cc34)ccc2c1 | 54 nM
CCc1ncc(Cc2ccc3cccc(C(N)=O)c3n2)c2cc(OC)c(OC)cc12 | 77 nM
CCCc1ncc(Cc2coc3ccc(F)cc3c2=O)c2cc(OC)c(OC)cc12 | 54 nM
CCCOc1cccc2ccc(Cc3cncc4cc(OC)c(OC)cc34)nc12 | 315 nM
COc1cc2cncc(Cc3cc4ccccc4cn3)c2cc1OC | 30 nM
COc1cc2cncc(Cc3ccc4nc(C)ccc4c3)c2cc1OC | 6.5 nM
CCCc1ncc(Cc2ccc3cccc(OCC(=O)O)c3n2)c2cc(OC)c(OC)cc12 | 4.9 nM
COc1cc2c(Cc3ccc4cccc(OCC(N)=O)c4n3)cnc(C)c2cc1OC | 64 nM
COc1cc2c(Cc3cnc4cc(C)ccc4c3)cnc(C)c2cc1OC | 7.1 nM
CCCc1ncc(Cc2ccc3oc4ccccc4c3c2)c2cc(OC)c(OC)cc12 | 278 nM
COc1cc2cncc(Cc3coc4ccc(C)cc4c3=O)c2cc1OC | 5.1 nM
CCc1ncc(Cc2ccc3cccc(OCCC(=O)O)c3n2)c2cc(OC)c(OC)cc12 | 5 nM
COc1cc2cncc(Cc3cc4ccccc4nc3N(C)C)c2cc1OC | 142 nM
CCc1ncc(Cc2ccc3nc(C)ccc3c2)c2cc(OC)c(OC)cc12 | 28 nM
CCCc1ncc(Cc2ccc3cccc(NS(N)(=O)=O)c3n2)c2cc(OC)c(OC)cc12 | 0.82 nM
CCc1ncc(Cc2cnc3ccc(NS(C)(=O)=O)cc3c2)c2cc(OC)c(OC)cc12 | 16 nM

Structure (SMILES) | IC50
COc1cc2cncc(Cc3ccc4ccccc4n3)c2cc1OC | 208 nM
COc1cc2cnc(C)c(Cc3ccc4ccccc4c3)c2cc1OC | 1070 nM
CCCc1ncc(Cc2ccc3cccc(O)c3n2)c2cc(OC)c(OC)cc12 | 20 nM
CCCCc1ncc(Cc2cnc3cc(C)ccc3c2)c2cc(OC)c(OC)cc12 | 946 nM
COc1cc2c(Cc3ccc4cccc(OCC(N)=O)c4n3)cnc(C3CC3)c2cc1OC | 67 nM
CCCc1ncc(Cc2cc3ccccc3nc2O)c2cc(OC)c(OC)cc12 | 36 nM
COc1cc2cncc(Cc3cc4ccccc4nc3Cl)c2cc1OC | 95 nM
CCCc1ncc(Cc2ccc3cccc(OCCC(=O)O)c3n2)c2cc(OC)c(OC)cc12 | 2.3 nM
CCc1ncc(Cc2ccc3cccc(NC(C)=O)c3n2)c2cc(OC)c(OC)cc12 | 17 nM
CCc1ncc(Cc2ccc3cccc(OCC(N)=O)c3n2)c2cc(OC)c(OC)cc12 | 20 nM
CCCCc1ncc(Cc2ccc3nc(C)ccc3c2)c2cc(OC)c(OC)cc12 | 154 nM
CCn1ncc2c(Cl)c(Cc3cncc4cc(OC)c(OC)cc34)cnc21 | 330 nM
CCCCc1ncc(Cc2cnc3ccccc3c2)c2cc(OC)c(OC)cc12 | 92 nM
COc1cc2c(Cc3ccc4nc(C)ccc4c3)cnc(C3CC3)c2cc1OC | 25 nM
CCCc1ncc(Cc2cc3cc(OCC)ccc3nc2O)c2cc(OC)c(OC)cc12 | 99 nM
CCc1ncc(Cc2ccc3cccc(NC(=O)C(N)=O)c3n2)c2cc(OC)c(OC)cc12 | 17 nM
CCc1ncc(Cc2ccc3cccc(NS(N)(=O)=O)c3n2)c2cc(OC)c(OC)cc12 | 0.53 nM
COc1cc2cncc(Cc3ccc4c(c3)CCN4C)c2cc1OC | 132 nM
CCc1ncc(Cc2ccc3cccc(NS(=O)(=O)CC)c3n2)c2cc(OC)c(OC)cc12 | 3.5 nM
CCn1ncc2c(O)c(Cc3cncc4cc(OC)c(OC)cc34)cnc21 | 238 nM
COc1cc2cnc(C)c(Cc3ccc4cccc(O)c4n3)c2cc1OC | 41 nM
COc1cc2cncc(Cc3coc4ccccc4c3=O)c2cc1OC | 41 nM

Continued by falling IC50, values first:

IC50 | Structure (SMILES)
3560 nM | CCOc1c(Cc2cncc3cc(OC)c(OC)cc23)cnc2c1cnn2CC
3170 nM | c1ccc2c(c1)oc1ccc(Cc3cncc4cc5c(cc34)OCO5)cc12
368 nM | COc1cc2c(Cc3ccc4nc(C)ccc4c3)cnc(C3CCCCC3)c2cc1OC
213 nM | COc1cc2cncc(Cc3ccc4cccc(OCc5ccncc5)c4n3)c2cc1OC
192 nM | CCc1ncc(Cc2ccc3cccc(OCCO)c3n2)c2cc(OC)c(OC)cc12
189 nM | COc1cc2cncc(Cc3ccc4oc(-c5ccccc5)nc4c3)c2cc1OC
168 nM | CCOc1cc2cncc(Cc3cnc4ccccc4c3)c2cc1OCC
159 nM | CCCc1ncc(Cc2cc3ccccc3cn2)c2cc(OC)c(OC)cc12
148 nM | COc1cc2c(Cc3ccc4nc(C)ccc4c3)cnc(-c3ccccc3)c2cc1OC
105 nM | COc1cc2cncc(Cc3ccc4ccccc4c3)c2cc1OC
102 nM | CCCc1ncc(Cc2ccc3c(C(F)(F)F)ccc(OCC(N)=O)c3n2)c2cc(OC)c(OC)cc12
90 nM | COc1cc2cncc(Cc3ccc4cccc(OCc5cccnc5)c4n3)c2cc1OC
74 nM | COc1cc2cncc(Cc3ccc4[nH]cnc4c3)c2cc1OC
70 nM | COc1cc2cncc(Cc3ccc4c(c3)OCCN4C)c2cc1OC
65 nM | CCCc1ncc(Cc2cc3cc(OC)ccc3nc2OCCNC(C)=O)c2cc(OC)c(OC)cc12
58 nM | CCc1ncc(Cc2ccc3cccc(NC(N)=O)c3n2)c2cc(OC)c(OC)cc12
54 nM | COc1cc2cncc(Cc3ccc4ncccc4c3)c2cc1OC
49 nM | CCOc1cccc2ccc(Cc3cncc4cc(OC)c(OC)cc34)nc12
44 nM | CCc1ncc(Cc2cc3cc(OC)ccc3nc2O)c2cc(OC)c(OC)cc12
32 nM | CCc1ncc(Cc2cc3ccccc3cn2)c2cc(OC)c(OC)cc12

IC50 | Structure (SMILES)
32 nM | CCn1c(=O)oc2cc(Cc3cncc4cc(OC)c(OC)cc34)ccc21
31 nM | CCc1ncc(Cc2ccc3cccc(OCc4nnn[nH]4)c3n2)c2cc(OC)c(OC)cc12
31 nM | COc1cc2c(Cc3ccc4nc(C)ccc4c3)cnc(CC(C)C)c2cc1OC
28 nM | CCc1ncc(Cc2cnc3ccc(O)cc3c2)c2cc(OC)c(OC)cc12
27 nM | COc1cc2cncc(Cc3coc4c(Cl)cc(Cl)cc4c3=O)c2cc1OC
25 nM | COc1ccc2nc(O)c(Cc3cncc4cc(OC)c(OC)cc34)cc2c1
21 nM | COc1cc2cncc(Cc3ccc4cccc(OCC(N)=O)c4n3)c2cc1OC
20 nM | COc1cc2cncc(Cc3coc4ccc(Cl)cc4c3=O)c2cc1OC
18 nM | COc1ccc2cc(Cc3cncc4cc(OC)c(OC)cc34)cnc2c1
15 nM | CCc1ncc(Cc2cnc3ccc(N4CCCC4=O)cc3c2)c2cc(OC)c(OC)cc12
9.7 nM | CCCc1ncc(Cc2cc3cc(OC)ccc3nc2NCC)c2cc(OC)c(OC)cc12
8.3 nM | CCc1ncc(Cc2ccc3cccc(NS(C)(=O)=O)c3n2)c2cc(OC)c(OC)cc12
7.8 nM | CCn1c(=O)oc2ccc(Cc3cncc4cc(OC)c(OC)cc34)cc21
7.6 nM | COc1cc2cncc(Cc3ccc4oc5ccccc5c4c3)c2cc1OC
6.6 nM | CCCc1ncc(Cc2ccc3cccc(OCCO)c3n2)c2cc(OC)c(OC)cc12
4.7 nM | CCCc1ncc(Cc2ccc3cccc(OCc4nnn[nH]4)c3n2)c2cc(OC)c(OC)cc12
4.6 nM | CCc1ncc(Cc2cnc3ccc(NS(N)(=O)=O)cc3c2)c2cc(OC)c(OC)cc12
4.4 nM | CCCc1ncc(Cc2ccc3c(c2)oc(=O)n3C)c2cc(OC)c(OC)cc12
3.6 nM | COc1cc2cncc(Cc3ccc4c(c3)oc(=O)n4C)c2cc1OC
